Assay results as given in patent US20130324469A1, “FIBRINOGEN AND KIDNEY DAMAGE” (THE BRIGHAM AND WOMEN'S HOSPITAL, INC., priority 2010, published 2013).
Entries after “also recorded” stand apart in the source; their conditions may differ.

How the values were obtained:
[1] = tested on: rats; experiment: Galactosamine-induced liver toxicity in rats (specificity of urinary fibrinogen); format: in vivo, rat; conditions: 1.1 g/kg ip, 24 h
[2] = tested on: patients with acute myocardial infarction; conditions: phase IIa; patients whose endothelial barrier integrity had not been compromised; cited from earlier work
[3] = tested on: myocardial infarction in animal models; conditions: suprapharmacological doses; cited from earlier work
[4] = tested on: acute lung injury in animal models; conditions: suprapharmacological doses; cited from earlier work
[5] = tested on: LLC-PK1 cells; experiment: BrdU uptake (cell proliferation) of LLC-PK1 cells after mineral-oil hypoxia; format: cell-based, pig; conditions: 6 μM; 48 h post hypoxia; serum free; vs random peptide
Experimental: FIG. 4E is a bar graph showing cell proliferation measured by bromodeoxyuridine (5-bromo-2-deoxyuridine (BrdU) uptake, by LLC-PK1 cells, 48 h post onset of hypoxia at 450 nm wavelength. Absorbance obtained from untreated cells was taken as 100% (n=6 wells/group). * represents p<0.05 as determined by Student's t-test between the two groups.
In vitro experiments using proximal tubular epithelial cells (LLC-PK1) were also performed. The renal tubular epithelial cell line, LLC-PK1, established from pig renal cortex was obtained from ATCC (Manassas, Va.) and maintained in DMEM containing 10% FBS. Two thousand five hundred LLC-PK1 cells were plated in 96 well plate for 24 h in DMEM 10% fetal bovine serum (FBS) at which time they formed a 50% confluent monolayer in the well. They were pretreated with 6 μM of Bβ15-42 or random peptide for 6 h and were immersed in 100 μl of mineral oil on top of DMEM medium without any serum for 6 h. […] Bromodeoxyuridine (5-bromo-2-deoxyuridine (BrdU) was measured as an index of cell proliferation by incubating cells with BrdU for 2 h before harvesting and the absorbance was quantified using a spectrophotometer at 450 nm wavelength as per manufacturer's instructions (Millipore, Bellerica, Mass.). Absorbance obtained from untreated cells was taken as 100% (n=6 wells/group) and the experiment was repeated twice.

[6] = molecular target: T1, VE-Cadherin (Homo sapiens, UniProt P33151); conditions: disrupts interaction of Fg with VE-Cadherin on endothelial cells; cited from earlier work
T1 sequence (P33151 48-784): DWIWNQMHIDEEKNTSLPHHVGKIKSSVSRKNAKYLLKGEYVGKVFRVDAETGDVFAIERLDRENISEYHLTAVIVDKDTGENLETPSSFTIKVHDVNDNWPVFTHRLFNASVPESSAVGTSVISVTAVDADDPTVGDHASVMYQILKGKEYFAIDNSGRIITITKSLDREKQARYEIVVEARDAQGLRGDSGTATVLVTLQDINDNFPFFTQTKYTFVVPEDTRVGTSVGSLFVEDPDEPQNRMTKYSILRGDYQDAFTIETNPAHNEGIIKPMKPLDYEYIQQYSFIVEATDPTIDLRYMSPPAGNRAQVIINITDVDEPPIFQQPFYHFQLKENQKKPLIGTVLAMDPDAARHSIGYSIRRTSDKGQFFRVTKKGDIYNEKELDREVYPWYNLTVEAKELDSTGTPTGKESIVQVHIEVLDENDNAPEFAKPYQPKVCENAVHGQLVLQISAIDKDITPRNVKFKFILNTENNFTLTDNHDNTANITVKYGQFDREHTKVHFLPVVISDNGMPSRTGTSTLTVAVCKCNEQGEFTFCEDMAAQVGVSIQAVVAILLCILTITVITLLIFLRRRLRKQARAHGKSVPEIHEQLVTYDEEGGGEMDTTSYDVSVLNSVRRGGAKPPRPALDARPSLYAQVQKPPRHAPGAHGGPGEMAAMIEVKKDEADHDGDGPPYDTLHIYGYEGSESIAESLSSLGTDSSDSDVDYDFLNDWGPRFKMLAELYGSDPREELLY

[7] = tested on: renal I/R injury in C57BL/6 mice; experiment: 27 min bilateral renal ischemia/reperfusion (I/R) injury in mice, peptide given iv after reperfusion; format: in vivo, mouse
Experimental: FIG. 3 is a set of four bar graphs showing that Bβ15-42 peptide protects mice from renal ischemia/reperfusion (I/R) injury. Male C57Bl6 mice were subjected to 27 minutes bilateral renal ischemia/reperfusion injury or sham surgery and 3.6 mg/kg of Bβ15-42 peptide or random peptide was administered intravenously 1 min following reperfusion. […] Serum creatinine (SCr), blood urea nitrogen (BUN) as indicators of renal dysfunction and urinary levels of fibrinogen (Fg) and kidney injury molecule-1 (Kim-1) as indicators of kidney injury were measured at 24 and 48 h in all the groups. (n=5/group of sham, n=10/group at 24 hours and n=5/group at 48 hours).* represents p<0.05 as determined by one way ANOVA in comparison with sham mice.
Blood and urine analysis was performed as follows. At sacrifice, blood was collected from dorsal aorta in heparinized tubes. Serum creatinine (SCr) concentrations were measured using a Beckman Creatinine Analyzer II. Blood urea nitrogen (BUN) was measured spectrophotometrically at 340 nm using a commercially available kit (Thermo Scientific, Rockford, Ill.) as described before (Krishnamoorthy et al., Toxicol Sci. 2010; 118(1):298-306).
Urines were collected by placing animals in individual metabolic cages and one ml of RNAlater (Ambion, Austin, Tex.) was added to the tubes to preserve RNA. Urinary Kidney Injury Molecule-1 (Kim-1 in rats and KIM-1 in humans) was measured using previously established luminex-based assays (Vaidya et al., Nat Biotechnol. 2010; 28(5):478-485; Vaidya et al., Clinical and Translational Science. 2008; 1(3):200-208). Urinary Kim-1 in mice was measured using a luminex-based assay. Urinary N-acetyl-β-D-glucosaminidase (NAG) was measured spectrophotometrically according to the manufacturers' protocols (Roche diagnostics, Basel Switzerland). Urinary creatinine concentration was used to normalize biomarker measurements in order to account for the influence of urinary dilution on biomarker concentrations. Fibrinogen in mouse, rat and human urines was measured using a commercially available species-specific luminex assay based kit from Millipore (Billerica, Mass.).
Immunostaining, to evaluate the cellular expression profile of Fg whole protein and Fgα, Fgβ and Fgγ chains was performed as follows. Kidney tissues were perfused with cold PBS before harvesting and then fixed in formalin for 16 h and embedded in paraffin. The sections incubated overnight at 4° C. in rabbit monoclonal anti-Fibrinogen alpha (Epitomics, Burlingame, Calif.), rabbit polyclonal anti-Fibrinogen beta (ProteinTech Group, Chicago, Ill.), rabbit polyclonal anti-Fibrinogen gamma (ProteinTech Group, Chicago, Ill.), anti-rat fibrinogen (Nordic Immunological Laboratories, Tilburg, The Netherlands), anti-human fibrinogen (Sigma-Aldrich, St. Louis, Mo.) and rabbit monoclonal anti-Ki67 (Vector Laboratories, Burlingame, Calif.). The primary antibody was detected using goat anti-rabbit Cy3 labeled and donkey anti goat Cy3 labeled secondary antibodies (Jackson ImmunoResearch Laboratories, West Grove, Pa.). DAPI (Sigma Aldrich, St. Louis, Mo.) was used for nuclear staining. The tissue sections were mounted using ProLong Gold Antifade Reagent (Invitrogen, Carlsbad, Calif.). The images were captured at 100× for rats, 60× for mice and humans using NIKON Eclipse 90i fluorescence microscope.
Endotoxin free Bβ15-42 ([…]) and random peptide ([…]) were custom synthesized (Invitrogen, Carlsbad, Calif.) with 95% modification and N-terminal amine group addition and free acid modification. Bβ15-42 or random peptide (3.6 mg/kg) was administered intravenously (iv) 1 min after reperfusion following 27 min bilateral renal I/R injury in C57BL/6 mice (n=5 to 10/group). Forty male C57Bl6 wild type mice were anesthetized using pentobarbital sodium (30 mg/kg, ip) and subjected to 27 min of bilateral renal I/R surgery by the retroperitoneal approach. Sham surgery was performed with exposure of both kidneys but without induction of ischemia. […]

[8] = mean ± SEM, listed as galactosamine
[9] = 3.6 mg/kg iv, 24 and 48 h, vs random peptide
[10] = 3.6 mg/kg iv, 24 h after I/R, vs random peptide

## N[C@H]1C(O)O[C@H](CO)[C@H](O)[C@@H]1O (stereo partly drawn) [Galactosamine, galactosamine]
[1]
  histopathological score kidney: 0
  histopathological score liver: 2
[1]; listed as galactosamine
  histopathological score kidney: no signs of kidney structural or functional damage
  histopathological score liver: extensive hepatocellular damage
[1]; mean ± SEM
  ALT: 422.8 ± 121.9 U/l
  AST: 246.0 ± 57.5 U/l
  BUN: 19.1 ± 1.1 mg/dL
  Scr: 0.5 ± 0.0 mg/dL
  kidney Fgα gene expression (FC relative to control): 1.2 ± 0.1 FC
  kidney Fgβ gene expression (FC relative to control): 1.0 ± 0.0 FC
  kidney Fgγ gene expression (FC relative to control): 0.9 ± 0.1 FC
  kidney Kim-1 gene expression (FC relative to control): 1.0 ± 0.1 FC
  urinary excretion of Fg: 26.0 ± 26.0 ng/mg Cr
[1]; [8]
  ALT: significant increase
  AST: significant increase
  kidney Fgα gene expression (FC relative to control): did not lead to any increase
  kidney Fgβ gene expression (FC relative to control): did not lead to any increase
  kidney Fgγ gene expression (FC relative to control): did not lead to any increase
  urinary excretion of Fg: did not lead to any increase

## GHRPLDKKREEAPSLRPAPPPISGGGYR (synthetically generated peptides) [Bβ15-42, naturally occurring 28 amino acid long product cleaved from fibrin fragments; Fgβ chain derived peptide, custom synthesized, endotoxin free]
[2]
  clinical effect in acute myocardial infarction: successful protective effects
[3]
  protection from myocardial infarction: protect
[4]
  protection from acute lung injury: protect
[5]
  renal epithelial cell proliferation (BrdU uptake): stimulating renal epithelial cell proliferation
[6]
  interactions with VE-Cadherin: low affinity
[7]; 3.6 mg/kg iv 1 min after reperfusion, vs random peptide
  infarct size and vascular congestion: significant reduction; also recorded: significantly smaller
[7]; [9]
  leukocyte infiltration (myeloperoxidase staining): similar
  mRNA levels of inflammatory cytokines (IL-1β, IL-6, IL-10, TNFα, ICAM) and macrophage marker (CD68) in kidney: no difference
[7]; [10]
  proximal tubular damage in the outer stripe of outer medulla (H & E histopathology): significant decrease
  reduction in kidney dysfunction measured by blood urea nitrogen (BUN): Approximately 50%
  reduction in kidney dysfunction measured by serum creatinine (SCr): Approximately 50%
  reduction in kidney proximal tubular injury measured by urinary Fg: Approximately 50%
  reduction in kidney proximal tubular injury measured by urinary kidney injury molecule-1: Approximately 50%
[7]; 24 h, vs random peptide
  number of TUNEL positive apoptotic cells in the renal medulla: similar
[7]; 48 h, p<0.05 vs random peptide
  apoptosis (TUNEL) in the renal medulla: significant decrease
[7]; 48 h, vs random peptide
  proliferative (Ki67 positive) cells in the renal medulla: significant number of cells appeared to be in a proliferative state
[7]; mice, bilateral renal I/R injury
  acute tubular injury: substantially reduced
